In general, IC50 refers to the midpoint of a concentration-inhibition curve. Broadly, the IC80 is the point of the concentration-response curve where the effect stands at 80%. The low end stands for an effect from little substance, the high end for a need for much substance. The term IC20 denotes the concentration needed for an effect of 20%.

Data on 2 molecules can be found in PMC9623576, “Semisynthesis and Evaluation of Anti-Inflammatory Activity of the Cassane-Type Diterpenoid Taepeenin F and of Some Synthetic Intermediates” (Journal of Natural Products, 2022).

The structures appear in SMILES notation.

Holding throughout (assay type): cell-based
The subject of test [1] is LPS-stimulated RAW 264.7 macrophage murine cells. As to the kind of experiment: RAW 264.7 cell-cycle distribution, PI flow cytometry. To be noted: for effect on cell-cycle arrest induced by LPS: 72 h of treatment. The text has this: Since the anti-inflammatory effect can be related to the ability to change the inflammatory processes induced by LPS in RAW 264.7 cells, including monocyte/macrophage cell differentiation and cell-cycle arrest,[22] we analyzed the cell-cycle distribution in these cells in response to LPS and compounds 16 and 21. The two compounds with the highest antiproliferative and important NO inhibitory effects were selected for this assay. For this purpose, flow cytometry by propidium iodide (PI) staining was used to measure DNA ploidy as well as the distribution of cells in every phase of the cell cycle (Figure S2).
A stock solution was frozen and stored at […]. Before the experiments, this solution was diluted in cell-culture medium to the adequate concentrations for each experiment. For the antiproliferative assay in all cell lines, we determined the concentrations of compounds required for 20, 50, and 80% of inhibition cell growth, IC20, IC50, and IC80, concentrations, respectively, to analyze the complete range of cytotoxicity and to determine the graduated or acute response to these compounds. For nitrite assay, subcytotoxic concentrations (3/4IC50, 1/2IC50, and 1/4IC50), were used to ensure that the NO inhibitory potential was not due to a possible cytotoxic effect. The concentrations of 3/4IC50, 1/2IC50, and 1/4IC50 were used for the cell-cycle analysis. All experiments were measured and compared with control (untreated cells after 24, 48, or 72 h of treatment.)
Cellular subpopulations, with different DNA contents, were visualized, using a fluorescence-activated cell sorter (FACS) at 488 nm in an Epics XL flow cytometer (Coulter Corporation, Hialeah, FL, USA). Changes in DNA levels are characteristic of cell-cycle arrest and cell differentiation.[36] […] Several controls were analyzed in parallel. […] Data were analyzed to determine the percentage of cells in each cell-cycle phase (G0/G1, S, and G2/M).
Background: Flow cytometry measures light scatter and fluorescence of single cells or particles in a stream.

In test [2] the test system is B16-F10 murine melanoma cells. As to the kind of experiment: MTT cancer cell proliferation assay, B16-F10. Conditions: Mus musculus, B16-F10, 72 h, MTT; for IC50: read-out: IC50; for IC20: read-out: IC20. How it is done:
(§1) The five newly synthesized diterpenoids were evaluated for their cytotoxic effects against three selected tumor cell lines, B16-F10 murine melanoma cells, HT29 human colon adenocarcinoma cells, and HepG2 human hepatocarcinoma cells at increasing concentrations (0–100 μg/mL). After 72 h of treatment, cell viability was determined by an MTT assay, where the tetrazolium dye was transformed into formazan in the mitochondria of viable cells, its absorbance measured at 570 nm and expressed as a percentage with respect to untreated control cells (S3 Figure.). The concentrations required for 20, 50, and for 80% growth inhibition (IC20, IC50, and IC80) were also determined for each compound (Table 2).
(§2) A stock solution was frozen and stored at […]. Before the experiments, this solution was diluted in cell-culture medium to the adequate concentrations for each experiment. […] For nitrite assay, subcytotoxic concentrations (3/4IC50, 1/2IC50, and 1/4IC50), were used to ensure that the NO inhibitory potential was not due to a possible cytotoxic effect. The concentrations of 3/4IC50, 1/2IC50, and 1/4IC50 were used for the cell-cycle analysis. All experiments were measured and compared with control (untreated cells after 24, 48, or 72 h of treatment.)
(§3) Human colorectal adenocarcinoma cell line HT29 (ECACC no. 9172201; ATCC no. HTB-38), human hepatocarcinome cell line HepG2 (ECACC no. 85011430), mouse melanoma cells B16-F10 (ATCC no. CRL-6475), and murine monocyte/macrophage-like RAW 264.7 cell line (ATCC no, TIB-71) were cultured in DMEM (Dulbecco’s modified Eagle’s medium) supplemented with 2 mM glutamine, 10% heat-inactivated FCS (fetal calf serum), 10 000 units/mL of penicillin and 10 mg/mL of streptomycin, (for all cancer cell lines), 50 μg/mL of gentamicin (only for RAW 264.7 cell line), and incubated at 37 °C, in an atmosphere of 5% CO2 and 95% humidity. The culture media were changed every 48 h, and the confluent cultures were separated with a trypsin solution (0.25% EDTA). In all experiments, monolayer cells were grown to 80–90% confluence, in sterile cell culture flasks. All cell lines used were purchased from the cell bank of the University of Granada, Spain.
(§4) The cytotoxicity assay was performed by the MTT (3-(4,5-dimethylthiazol-2-yl)-2,5-diphenyltetrazolium bromide) method.[21] To quantify the cytotoxicity of compounds, the fresh and suspended cells were seeded in 96-well plates to a volume of 100 μL at 6.0 × 10^3 cells/mL for HT29 and RAW 264.7 cell lines, at 5.0 × 10^3 cells/mL for B16-F10 cells and 15.0 × 10^3 for Hep G2. Then, cells were incubated to adhere over 24 h at 37 °C with 5% CO2. All tested compounds were prepared in fresh growth medium. After 24 h, an additional 100 μL of medium with the corresponding concentrations of products (only medium in the control wells) was added to the corresponding wells, at various final concentrations (0–100 μg/mL). Finally, after 72 h of incubation at 37 °C with 5% CO2, the medium with the compounds were removed and 100 μL of MTT solution (0.5 mg/mL) in 50% of PBS 50% of medium was added to each well. After 1.5 h of incubation, formazan was resuspended in 100 μL of DMSO, and each concentration was tested in triplicate. Relative cell viability, with respect to untreated control cells, was measured by absorbance at 570 nm on an ELISA plate reader (Tecan Sunrise MR20-301, TECAN, Austria).
(§5) Cytotoxicity experimental data were fitted to a sigmoidal function (y = ymax/(x/a)^−b) by nonlinear regression. […] These analyses were performed using SigmaPlot 12.5 software. Similar analyses were performed to obtain the IC50 of NO production. All data shown here are representative of at least two independent experiments performed in triplicate. All quantitative data were summarized as the mean ± standard deviation (SD).

Test [3] relates to HT29 human colon adenocarcinoma cells. As to the kind of experiment: MTT cancer cell proliferation assay, HT29. Conditions: Homo sapiens, HT29, 72 h, MTT; for IC50: HT-29, 72 h, read-out: IC50; for IC80 / IC20: HT-29; for IC20: read-out: IC20. As to the method:
as §1, §2, §3, §4, §5

For the molecule `COC(=O)[C@]1(C)CCC[C@]2(C)c3cc(O)c(C=O)c(C)c3CC[C@@H]12` [Compound 21, (1R,4aS,10aR)-Methyl 7-formyl-6-hydroxy-1,4a,8-trimethyl-1,2,3,4,4a,9,10,10a-octahydrophenanthrene-1-carboxylate], the “effect on cell-cycle arrest induced by LPS” value in test [1] was “could revert the cell-cycle arrest induced by LPS”. Further, in test [2], the half-maximal inhibitory concentration (IC50) stood at 7.72 ± 3.92 µM, the 80% effect level (IC80) was put at 20.1 ± 7.72 µM and the concentration for an effect of 20% (IC20) was determined as 3.18 ± 2.3 µM. Moreover, in test [3], the IC50 stood at 20.1 ± 0.61 µM, the IC80 was found to be 30.6 ± 0.81 µM and the IC20 was determined as 13.5 ± 0.55 µM.

As to `COC(=O)[C@]1(C)CCC[C@@]2(C)[C@H]1CC=C1C(C)=C(C(C)C)C(=O)C[C@@H]12` [Compound 16, (1R,4aR,10aR)-Methyl 7-isopropyl-1,4a,8-trimethyl-6-oxo-1,2,3,4,4a,4b,5,6,10,10a-decahydrophenanthrene-1-carboxylate], in test [1], the “effect on cell-cycle arrest induced by LPS” value is “could revert the cell-cycle arrest induced by LPS”. The “proportion of cells in the S phase” value in test [1] (LPS + compound, 72 h, 1/4IC50 to 3/4IC50, with respect to positive control) worked out at 69%. Also, in test [2], the IC50 was 22.2 ± 1.16 µM, the 80% effect level (IC80) was put at 35.8 ± 3.35 µM and the IC20 was determined as 14.2 ± 0.19 µM. For the same molecule, in test [3], the half-inhibitory concentration (IC50) was 33.4 ± 2.16 µM, the concentration for an effect of 80% (IC80) came out at 55 ± 0.93 µM and the IC20 stood at 21.4 ± 3.09 µM.
